Where two headings read alike, the source gives them in different places.
Tests used:
red blood corpuscles [1] = tested on: red blood corpuscles
Protocol: (§1) (1) One part by volume of human blood was mixed with 1 part by volume of a preservative solution (acid-citrate-dextrose solution) and preserved at 4° C. Just before using, it was washed 4 times with about 8 times by volume of a saline solution (2,000 rotations/minute, for 3 minutes) and a 2% saline floating solution of red blood corpuscles was prepared.
(§2) (2) A solution prepared by dissolving α1 -acid glycoprotein or a comparative substance shown in FIG. 1 in a saline solution was mixed with the same amount of the saline floating solution of red blood corpuscles, and the mixture was moderately shaked for 30 minutes at 37° C. 1 ml of the mixture was taken out and filtered by means of a nitrocellulose membrane filter (produced by Saltrius Co., diameter: 13 mm, diameter of fine openings: 3.0 μm) at 37° C. with pressing under 80 mmHg/cm^2. 0.5 ml of the filtrate was taken out and subjected to light centrifugal separation (1,500 rotations/minute, for 2 minutes). To the precipitate was added 5 ml of deionized water to cause hemolysis at a low tonicity, and a ratio of red blood corpuscles passing through the filter was calculated from the absorbance (420 nm) thereof. Further, percent hemolysis caused during the operation was calculated from the absorbance of the supernatant fluid of the filtrate.

red blood corpuscles [2] = test: Fine opening passability of red blood corpuscles (nitrocellulose membrane filter, 3.0 μm); assay type: cell-based, human; settings: 37° C., 30 minutes, 3.0 μm filter, 80 mmHg/cm^2
Protocol: as §1, §2

[3] = tested on: red blood corpuscles through fine blood vessels; test: Passability of red blood corpuscles through vital fine blood vessels (exposed rabbit mesentery, reduced blood pressure); assay type: in vivo
Description: A rabbit was subjected to laparotomy under urethane anesthesia to expose the mesentery and the passability of the red blood corpuscles through fine blood vessels was observed by means of a stereomicroscope.

Mouse = test: Acute toxicity, mouse; assay type: in vivo
[4] = tested on: Human fetal lung fiber cell; test: Toxicity to cultivated cells, human fetal lung fiber cell; assay type: cell-based
HeLaS3 = test: Toxicity to cultivated cells, HeLaS3; assay type: cell-based
Rat = test: Acute toxicity, rat; assay type: in vivo
[5] = tested on: EB virus transform lymphoblast P3HR-1; test: Toxicity to cultivated cells, P3HR-1; assay type: cell-based
[6] = 100 μg-1 mg/kg, arterial blood pressure 40-60 mmHg/cm^2

Substance	percent hemolysis in case of passing through fine openings (red blood corpuscles [1]; human, red blood cells)	passage of red blood corpuscles through the filter (red blood corpuscles [2]; 0.1% solution, compared with α1 -acid glycoprotein)	stagnation of the blood flow and stopping of the blood corpuscles ([3]; in case of using dextran sulfate, reduced blood pressure)	percent hemolysis in case of passing through fine openings (red blood corpuscles [1]; 0.05% solution, saline alone as high as 20%)	passage of red blood corpuscles through the filter (red blood corpuscles [2]; 0.05% solution, saline control did not pass at all)	LD50 (Mouse; intraperitoneally)	LD50 (Mouse; intravenously)	LD50 (Mouse; subcutaneously)	Toxicity (50% Inhibition of propagation) [4]	impilation of corpuscles and separation of the corpuscle component from the serum [3, 6]	movement of red blood corpuscles [3, 6]	passability of red blood corpuscles through fine blood vessels under reduced blood pressure ([3]; continuously into local dominating artery or into a vein, 100 μg-1 mg/kg, blood pressure reduced by blood-letting or pentobarbital)	Toxicity (50% Inhibition of propagation) (HeLaS3)	LD50 (Rat; intraperitoneally)	LD50 (Rat; intravenously)	LD50 (Rat; subcutaneously)	Toxicity (50% Inhibition of propagation) [5]
dextran sulfate [reference compound]	25 to 30%	passage of the red blood corpuscles was observed too, but the effect was small as compared with the case of α1 -acid glycoprotein	such stagnation of the blood flow and stopping of the blood corpuscles were not observed	–	–	–	–	–	–	–	–	–	–	–	–	–	–
α1 -acid glycoprotein: active ingredient of the present invention; substance known already, produced by the process described in Unexamined patent publication Sho 53-37187	–	–	–	5%	the red blood corpuscles passed through the filter with hardly causing hemolysis	> 1,000 mg/kg	> 1,000 mg/kg	> 1,000 mg/kg	> 100 µg/mL	impilation of corpuscles and separation of the corpuscle component from the serum were not observed	the red blood corpuscles moved in the normal direction though the movement was slow	the passability of red blood corpuscles was good	> 100 µg/mL	> 1,000 mg/kg	> 1,000 mg/kg	> 1,000 mg/kg	> 100 µg/mL
